How the values were obtained:
[1] = tested on: experimental dog model of OA; details: cited from earlier work
[2] = Plasma ML3000 level after immediate release dosage forms; assay type: in vivo; details: immediate release dosage form, for 8 hours
[3] = tested on: experimental osteoarthritis (OA) dog model; test: Experimental OA dog model (ACL section), macroscopic grading of the knee; assay type: in vivo; details: for reduction of size of cartilage lesions on tibial plateaus vs placebo: P<0.01; for width of osteophytes: mean±SEM, placebo 4.50±0.66, not significant; for osteophytes present (share of condyles): placebo 93%
Experimental: (§1) Twenty-one adult crossbred dogs (2-3 years old), weighing 20-25 kg each, were used in this study. Surgical sectioning of the anterior cruciate ligament (ACL) of the right knee through a stab wound was performed on all dogs as previously described (5,6). Prior to surgery, the animals were anesthetized intravenously with pentobarbital sodium (25 mg/kg) and intubated. Following surgery, the dogs were kept at a housing farm where they were free to exercise in a large pen.
(§2) The dogs were randomly separated into 3 treatment groups. Group 1 (n=7 dogs) was made up of dogs that received placebo (encapsulated methylcellulose) treatment (OA dogs); Groups 2 and 3 (n=7 dogs per group) received encapsulated ML3000 twice daily for 8 weeks at total doses of 2.5 and 5 mg/kg, respectively, beginning the day following surgery. The medication was administered 7 days/week throughout the duration of the study. All dogs were killed 8 weeks after surgery.
Immediately after killing, the right knee of each dog was dissected, placed on ice, and the synovial fluid aspirated. Each knee was examined by 2 independent, blinded observers (DVJ, JCF) for gross morphologic changes including the presence of osteophyte formation and cartilage lesions as previously described (5,6). The degree of osteophyte formation was graded by measuring the maximal width (mm) of the spur of each femoral condyle. The cartilage changes on the medial and lateral femoral condyles and tibial plateaus were graded separately under a dissecting microscope (Stereozoom; Bausch & Lomb, Rochester, N.Y.).
The area of the articular surface changes was measured and expressed in mm^2. The depth of erosion was graded on a scale of 0-4, as follows: 0=surface appears normal, 1=minimal fibrillation or a slight yellowish discoloration of the surface, 2=erosion extended into superficial or middle layers, 3=erosion extended into deep,layers, and 4=erosion extended to the subchondral bone.

[4] = tested on: experimental osteoarthritis (OA) dog model; test: Experimental OA dog model, histologic grading of cartilage and synovial membrane; assay type: in vivo
Experimental: as §1, §2
Histologic evaluation was performed on sagittal sections of cartilage from the lesioned areas of each femoral condyle and tibial plateau as described (7,8). Specimens were dissected, fixed in TissuFix #2 (Laboratoires Gilles Chaput, Montréal, Québec, Canada), and embedded in paraffin for histologic evaluation. Serial sections (5 μm) were stained with Safranin O. The severity of the OA lesions was graded on scale of 0-14, by 2 independent observers (DJ, JF), using the histologic/histochemical scale of Mankin et al (12). This scale evaluates the severity of OA lesions based on the loss of staining with Safranin O (scale 0-4), cellular changes (scale 0-3), invasion of the tidemark by blood vessels (scale 0-1), and structural changes (scale 0-6, where 0=normal cartilage structure and 6=erosion of the cartilage down to the subchondral bone). This scoring system was based on the most severe histologic changes within each cartilage section.
Representative specimens of synovial membrane from the gutters of the medial and lateral knee compartments were also dissected from underlying tissue. The specimens were fixed in TissuFix #2, embedded in paraffin, sectioned (5 μm), and stained with hematoxylin and eosin. Two synovial membrane specimens from each compartment were examined, serial selections were made throughout the specimens, and each one scored separately. The highest score from each specimen was recorded. The average was calculated and considered as a unit for the whole knee. The severity of synovitis was graded on a scale of 0-10 (13) by 2 independent observers (DVJ, JCF) adding the scores for 3 histologic criteria: synovial lining cell hyperplasia (scale 0-2), villous hyperplasia (scale 0-3), and degree of cellular infiltration by mononuclear and polymorphonuclear cells (scale 0-5).

[5] = tested on: PGE2; test: PGE2 measurement in synovial fluid of OA dogs (EIA); assay type: in vivo, dog; details: 2.5 and 5 mg/kg/day; placebo 652.8±149.9 pg/ml
Experimental: as §2
Synovial fluid taken at the time of sacrifice was centrifuged (14000 g, 15 minutes, 4° C.), and supernatants used for PGE2 determination. The level of PGE2 was determined using a specific enzyme immunoassay (EIA) (Cayman Chemical, Ann Arbor, Mich.).

[6] = tested on: LTB4; test: LTB4 production in synovial explant culture of OA dogs (LPS, EIA); assay type: in vivo, dog; details: both treated groups, explants with 1 μg/ml LPS; placebo 2.48±0.69 pg/mg tissue
Experimental: as §2
Representative specimens of synovial membrane from all dogs were aseptically dissected from underlying tissue. The specimens were rinsed several times in Dulbecco's Modified Eagle's Medium (DMEM; Gibco-BRL Life Technologies, Burlington, Ontario, Canada), and 150 mg of tissue incubated (duplicate) for 48 hours at 37° C. in a humidified atmosphere of 5% CO2/95% air in DMEM medium in the presence of 1 μg/ml lipopolysaccharide (LPS; Sigma-Aldrich Canada, Oakville, Ontario, Canada). The LTB4 was extracted from cultured synovium explants as follows: membranes were homogenized in EIA buffer (1 M phosphate, pH 7.4, containing 1% BSA, 4 M NaCl, 10 mM EDTA and 0.1% sodium azide) and centrifuged (30000 g, 20 minutes, 4° C.). Supernatants were collected and the levels of LTB4 determined using EIA (Cayman Chemical).

[7] = tested on: collagenase-1 (MMP-1); test: Immunohistochemistry, chondrocyte cell score for collagenase-1 in cartilage of OA dogs; assay type: in vivo, dog; details: condyles and plateaus, both doses, slightly more pronounced at highest dosage
Experimental: as §2
Cartilage and synovial membrane specimens were processed for immunohistochemical analysis as previously described (7,14). Briefly, specimens were fixed in 4% neutral buffered formalin for 24 hours, then embedded in paraffin. […]
Cartilage. Quantification of the different antigens in cartilage was done using a published method (7,14). […] For each arthritic specimen, it was ensured prior to evaluation that an intact cartilage surface could be detected and used as a marker for validation of morphometric analysis. The total number of chondrocytes and the number of chondrocytes staining positive for the specific antigen were determined. The final results were expressed as the percentage of chondrocytes staining positive for the antigen (cell score) with the maximum score being 100%. […]

[8] = tested on: interleukin-1β (IL-1β); test: Immunohistochemistry, synovial membrane cell score for IL-1β in OA dogs; assay type: in vivo, dog; details: 2.5 and 5 mg/kg/day
Experimental: as §2
Cartilage and synovial membrane specimens were processed for immunohistochemical analysis as previously described (7,14). Briefly, specimens were fixed in 4% neutral buffered formalin for 24 hours, then embedded in paraffin. Sections (5 μm) of paraffin-embedded specimens were placed on Superfrost Plus slides (Fisher Scientific, Nepean, Ontario, Canada), deparaffinized in toluene, dehydrated in a graded series of ethanol, and preincubated with chondroitinase ABC (0.25 units/ml) in phosphate buffered saline (PBS; Sigma-Aldrich Canada) for 60 minutes at 37° C. […]
Synovial membrane. For synovial membrane analysis, a cell score of the different specimens was determined for each section using our published method (8). […] The percentage of cells staining positive for the specific antigen was evaluated in each field as described above for cartilage. […]

[9] = Clinical observation of dogs during 8 weeks of treatment; assay type: in vivo; details: all dogs of the 3 experimental groups
Experimental: as §1, §2

[10] = tested on: carrageenan-induced paw edema; details: rat; cited from earlier work
[11] = tested on: rat adjuvant arthritis; details: cited from earlier work
[12] = tested on: knee OA patients; details: X-ray criteria, 5-year period; cited from earlier work

## CC(=O)Oc1ccccc1C(=O)O [ASA, acetylsalicylic acid]
[1]
  effect on progression of experimental OA: ineffective (10) or even demonstrated to accelerate cartilage damage

## CC(C(=O)O)c1ccc2c(c1)[nH]c1ccc(Cl)cc12 (centres unmarked) [Carprofen]
[1]
  effect on progression of experimental OA: exhibit anti-OA effects

## CC1(C)Cc2c(-c3ccccc3)c(-c3ccc(Cl)cc3)c(CC(=O)O)n2C1 [ML3000, [2,2-dimethyl-6-(4-chlorophenyl)-7-phenyl-2,3-dihydro-1H-pyrrolizine-5yl]-acetic acid]
[2]; dose 2.5 mg/kg
  plasma ML3000 concentration maintained: above 100 ng/mL
[2]; dose 5 mg/kg
  plasma ML3000 concentration maintained: > 200 ng/mL
[3]; 2.5 mg/kg/day, 8 weeks
  reduction of size of cartilage lesions on tibial plateaus vs placebo: 45%
  width of osteophytes: 3.57±0.56 mm
  osteophytes present (share of condyles): 93%
[3]; 2.5 mg/kg/day, 8 weeks, P<0.05
  reduction of size of cartilage lesions on femoral condyles vs placebo: 39%
[3]; 5 mg/kg/day, 8 weeks
  reduction of size of cartilage lesions on tibial plateaus vs placebo: 54%
  width of osteophytes: 3.86±0.66 mm
  osteophytes present (share of condyles): 86%
[3]; 5 mg/kg/day, 8 weeks, P<0.04
  reduction of size of cartilage lesions on femoral condyles vs placebo: 61%
[3]; ML3000-treated dogs, 8 weeks
  macroscopic appearance of synovial membrane vs placebo: thinner, contained fewer blood vessels, and the discoloration was less intense
[3]; both doses (2.5 and 5 mg/kg/day), scale 0-4
  grade of cartilage lesions on tibial plateaus: significantly reduced
[3]; treated dogs (2.5 and 5 mg/kg/day), scale 0-4
  grade of cartilage lesions on femoral condyles: did not reach statistical significance
[4]; 5 mg/kg/day
  villous hyperplasia of synovial membrane: significant reduction
[4]; 5 mg/kg/day, Mankin scale 0-14
  histologic severity of cartilage lesions on condyles vs placebo, significance: statistical significance was obtained
[4]; 2.5 and 5 mg/kg/day (P<0.002 and P<0.02), Mankin scale
  histologic severity of cartilage lesions on tibial plateaus: statistically significant decrease
[4]; ML3000-treated dogs, Mankin scale 0-14
  histologic severity of cartilage lesions on condyles vs placebo: less severe
[5]
  level of PGE2 in synovial fluid: markedly decreased
[6]
  LTB4 levels in cultured synovium: statistically significant reduction
[7]
  chondrocyte cell score for collagenase-1: significant decrease
[8]
  number of synovial lining cells staining positive for IL-1β: dose-dependent and significant decrease
[9]
  body weight during the study period: no change in the body weight
[10]
  anti-inflammatory action: potent anti-inflammatory action
[11]
  anti-inflammatory action: potent anti-inflammatory action

## O=C(O)Cc1ccccc1Nc1c(Cl)cccc1Cl [diclofenac]
[1]
  effect on progression of experimental OA: ineffective (10) or even demonstrated to accelerate cartilage damage

## COc1ccc2c(c1)c(CC(=O)O)c(C)n2C(=O)c1ccc(Cl)cc1 [indomethacin]
[12]
  effect on progression of cartilage damage: even accelerated its progression

## CC(C(=O)O)c1ccc(C(=O)c2ccccc2)s1 (centres unmarked) [tiaprofenic acid]
[12]
  effect on progression of cartilage damage: could not retard the progression of cartilage damage

From patent US7425573B2, “Use of annellated pyrrole compounds in the treatment of articular cartilage or subchondral bone degeneration” (priority 2001, dated 2008)
